pIC50: −log10 of the molar value. Values after ≈ are worked out from the molar mass of the structure shown. “Also recorded” adds a separate entry of the source. Where two headings read alike, the source gives them in different places.
Tests used:
human topo II = biological target: T1, human topo II (Homo sapiens, UniProt P11388); assay: Topo II-mediated plasmid linearisation assay; assay type: biochemical
T1 construct: purchased Topogen (Columbus, Ohio)
Description: FIG. 3 represents an assay for determining the effect of dehydroequol on double-stranded DNA cleavage. pRYG DNA was incubated with ten units of human topo II (lanes 2-6) in the absence (lane 1) or presence of 10, 30, or 100 μg/ml dehydroequol (lanes 2-4), or 30 μg/ml genistein (lane 5), or 10 μg/ml VP-16 (lane 6). Lane 7, linear pUC8 DNA marker. Double-strand DNA breakage was determined by converting relaxed (REL) or supercoiled (SC) pRYG DNA to the linear (LIN) form.
A linearisation assay was employed to determine if dehydroequol is a topo II poison. Double-strand breakage results in the appearance of linear DNA. […] This effect, which was evident at 10 μg/ml, peaked at 30 μg/ml.
Topo II poisons enhance topo II-mediated DNA cleavage and can be identified with the linearisation assay under the reaction conditions provided by the supplier of the enzyme (Topogen, Inc.). Briefly, 20-μl reaction mixtures contained 30 mM Tris-HCl, pH 7.6, 3 mM ATP, 15 mM β-mercaptoethanol, 8 mM MgCl2, 60 mM NaCl, 1 μl of the test agent (or solvent), 0.3 μg of pRYG, and 10 units of human topo II (added last). After a 15-min incubation at 37° C., SDS-proteinase K was added, and following a 15 min incubation at 37° C., samples were extracted with CHCl3-isopropanol and electrophoresis was performed on a 1% agarose gel containing ethidium bromide. Gels were photographed, and photographic negatives were scanned.

sphingomyelinase = assay: TNF-stimulated sphingomyelinase activity; assay type: cell-based; conditions: data not shown
[1] = tested on: prostate cancer line DU145; assay: Anti-proliferative effect on DU145; assay type: cell-based; conditions: Homo sapiens, DU-145
prostate cancer line PC3 = assay: Anti-proliferative effect on PC3; assay type: cell-based; conditions: Homo sapiens, PC-3
[2] = tested on: Human umbilical vein endothelial cells (HUVEC); assay: In vitro capillary tube formation assay in collagen gel; assay type: cell-based; conditions: 10 μg/ml, PMA and RMACII present
Description: In vitro tube assay: Capillary tube formation in a collagen gel was performed essentially as described by Gamble et al^30,31. Tubes were formed in the presence of the tumour promoter phorbol myristate acetate (PMA) and the anti β1 integrin antibody RMACII. De (10 μg/ml final) was added at the time of plating the cells onto the gel.

human topo I = biological target: T2, human topo I (Homo sapiens, UniProt P11387); assay: Topo I-mediated plasmid-nicking assay; assay type: biochemical; conditions: 20 and 100 μg/ml
T2 construct: purchased Topogen (Columbus, Ohio)
T2 sequence (P11387 1-765): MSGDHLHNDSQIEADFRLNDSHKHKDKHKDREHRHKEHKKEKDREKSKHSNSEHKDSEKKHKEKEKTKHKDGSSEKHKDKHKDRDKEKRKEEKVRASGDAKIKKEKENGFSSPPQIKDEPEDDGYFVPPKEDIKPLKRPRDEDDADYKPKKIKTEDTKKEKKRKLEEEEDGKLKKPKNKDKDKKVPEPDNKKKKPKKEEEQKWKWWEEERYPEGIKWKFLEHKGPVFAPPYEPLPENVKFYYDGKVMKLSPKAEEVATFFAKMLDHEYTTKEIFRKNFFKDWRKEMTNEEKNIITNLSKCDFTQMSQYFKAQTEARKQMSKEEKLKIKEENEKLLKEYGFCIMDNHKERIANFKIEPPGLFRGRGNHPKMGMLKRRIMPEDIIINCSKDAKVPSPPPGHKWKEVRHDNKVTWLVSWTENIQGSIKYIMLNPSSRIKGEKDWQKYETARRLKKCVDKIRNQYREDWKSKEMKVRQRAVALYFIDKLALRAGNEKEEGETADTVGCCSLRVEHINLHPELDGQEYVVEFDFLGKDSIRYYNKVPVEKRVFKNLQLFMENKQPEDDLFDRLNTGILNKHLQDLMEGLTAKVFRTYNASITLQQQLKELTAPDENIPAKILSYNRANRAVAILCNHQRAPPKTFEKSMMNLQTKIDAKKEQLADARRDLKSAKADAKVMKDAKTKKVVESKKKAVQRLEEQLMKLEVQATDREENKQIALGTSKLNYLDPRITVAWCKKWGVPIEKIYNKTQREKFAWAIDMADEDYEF
Description: Single-strand DNA breakage was determined by converting relaxed (REL) or supercoiled (SC) pUC8 DNA to the nicked form (NIC).
Under the electrophoretic conditions that were used in the experiment shown in FIG. 4, covalently closed circular (supercoiled or relaxed) plasmid DNA migrates on the bottom of the gel. In the presence of a topo I poison that stabilises the cleavable complex, and following denaturation and degradation of the enzyme with proteinase K/SDS, the resulting nicked DNA migrates on the top of the gel.
Topo I poisons enhance topo I-mediated pUC8 DNA cleavage under the reaction conditions provided by the supplier of the enzyme (Topogen, Inc.). Briefly, 20 μl of reaction mixtures contained 10 mM Tris-HCl, pH 7.5, 1 mM EDTA, 100 mM NaCl, 1 μl of the test agent (or solvent), 0.5 μg of pUC8, and 10 units of human topo I (added last). After a 30-min incubation at 37° C., SDS-proteinase K was added, and, following a 30-min incubation at 37° C., samples were extracted with CHCl3-isopropanol and electrophoresed on a 1% agarose gel containing 0.5 μg/ml ethidium bromide. Gels were photographed, and photographic negatives were scanned.

[3] = tested on: Human umbilical vein endothelial cells (HUVEC); assay: Endothelial cell proliferation assay (MTT); assay type: cell-based
Description: Cells: Human umbilical vein endothelial cells (HUVEC) were prepared and grown as previously described^30. The cells were used between passages 2 and 6 for all experiments. The human prostatic adenocarcinoma cell line, LNCaP was obtained from American Tissue Type Collection and maintained according to the instructions of the supplier.
(§1) Proliferation assay: HUVEC were seeded at 3×10^3 cells per gelatin-coated microtitre well and grown in complete medium for 3 days. Dehydroequol (De) was added 3 hours after plating. Proliferation was measured using the MTT assay (Promega, Wis., USA) and is given as the rate of proliferation over the 3 days±SEM of quadruplicate determinations for each group. Proliferation of LNCaP cells was determined using the MTT assay. Cells were seeded at 2.5×10^3 cells per microtitre well. De was added 4 days after plating and assayed after a further 5 days of growth. Cell viability is expressed as a percentage of control untreated cells.

tNOX = biological target: T3, tNOX (Homo sapiens, UniProt Q16206); assay: tNOX inhibition, 96-well plate assay with HeLa in dithiodipyridine substrate; assay type: cell-based; conditions: 10 μm
T3 construct: endogenous in cells; host or cells: HeLa (human cervical carcinoma)
Source text: A 96-well plate assay was used containing human cervical carcinoma (HeLa) in a dithiodipyridine substrate.

leukaemic cell line K562 = assay: Anti-proliferative effect on K562; assay type: cell-based; conditions: Homo sapiens
[4] = tested on: human prostatic adenocarcinoma cell line LNCaP; assay: Proliferation of LNCaP cells, MTT assay; assay type: cell-based
Description: as §1

colon cancer line HT29 = assay: Anti-proliferative effect on HT29; assay type: cell-based; conditions: Homo sapiens, HT-29
colon cancer line CaCo-2 = assay: Anti-proliferative effect on CaCo-2; assay type: cell-based; conditions: Homo sapiens
VEGF receptor 2 = VEGF receptor 2 expression on EC, flow cytometric analysis; assay type: cell-based; conditions: after De treatment, data not shown

T1 sequence (P11388 whole entry): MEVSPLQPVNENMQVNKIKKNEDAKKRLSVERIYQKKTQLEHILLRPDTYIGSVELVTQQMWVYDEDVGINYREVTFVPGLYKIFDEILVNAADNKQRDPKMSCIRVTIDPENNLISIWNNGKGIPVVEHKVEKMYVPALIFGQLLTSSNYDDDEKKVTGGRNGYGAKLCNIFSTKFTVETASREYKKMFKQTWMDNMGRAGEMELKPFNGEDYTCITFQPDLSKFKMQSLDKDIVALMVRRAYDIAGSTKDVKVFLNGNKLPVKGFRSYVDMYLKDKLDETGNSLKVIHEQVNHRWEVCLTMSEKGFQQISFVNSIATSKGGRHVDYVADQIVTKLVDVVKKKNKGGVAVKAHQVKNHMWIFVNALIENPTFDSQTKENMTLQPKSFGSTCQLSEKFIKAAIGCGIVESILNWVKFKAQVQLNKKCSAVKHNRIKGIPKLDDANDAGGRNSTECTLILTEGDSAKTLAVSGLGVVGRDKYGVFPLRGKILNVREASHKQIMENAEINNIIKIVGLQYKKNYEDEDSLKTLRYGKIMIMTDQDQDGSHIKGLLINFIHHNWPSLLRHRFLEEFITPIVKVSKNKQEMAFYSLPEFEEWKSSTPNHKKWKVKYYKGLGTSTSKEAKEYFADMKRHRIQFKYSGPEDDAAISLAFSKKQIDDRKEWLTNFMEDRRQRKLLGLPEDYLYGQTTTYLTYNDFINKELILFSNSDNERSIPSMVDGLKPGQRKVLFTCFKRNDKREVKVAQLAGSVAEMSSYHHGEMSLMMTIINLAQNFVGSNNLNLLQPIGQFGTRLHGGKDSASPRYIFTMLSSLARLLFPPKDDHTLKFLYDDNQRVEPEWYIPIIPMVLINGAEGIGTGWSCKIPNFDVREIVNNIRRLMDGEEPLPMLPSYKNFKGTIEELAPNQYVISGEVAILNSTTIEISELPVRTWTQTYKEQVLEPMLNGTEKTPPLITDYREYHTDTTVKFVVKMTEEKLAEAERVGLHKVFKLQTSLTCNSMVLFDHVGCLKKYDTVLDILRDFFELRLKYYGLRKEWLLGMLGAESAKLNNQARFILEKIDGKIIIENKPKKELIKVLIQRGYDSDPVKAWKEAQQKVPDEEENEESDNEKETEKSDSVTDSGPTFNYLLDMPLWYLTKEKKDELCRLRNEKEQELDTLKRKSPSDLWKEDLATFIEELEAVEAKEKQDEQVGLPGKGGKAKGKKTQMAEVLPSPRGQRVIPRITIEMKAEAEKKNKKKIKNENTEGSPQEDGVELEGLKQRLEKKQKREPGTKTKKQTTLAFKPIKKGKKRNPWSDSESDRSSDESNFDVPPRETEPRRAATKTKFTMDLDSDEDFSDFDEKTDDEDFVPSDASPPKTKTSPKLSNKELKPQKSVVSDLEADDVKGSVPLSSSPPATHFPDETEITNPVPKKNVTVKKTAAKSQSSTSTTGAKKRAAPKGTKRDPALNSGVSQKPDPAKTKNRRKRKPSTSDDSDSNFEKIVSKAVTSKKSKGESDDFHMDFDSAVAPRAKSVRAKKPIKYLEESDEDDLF
T3 sequence (Q16206 whole entry): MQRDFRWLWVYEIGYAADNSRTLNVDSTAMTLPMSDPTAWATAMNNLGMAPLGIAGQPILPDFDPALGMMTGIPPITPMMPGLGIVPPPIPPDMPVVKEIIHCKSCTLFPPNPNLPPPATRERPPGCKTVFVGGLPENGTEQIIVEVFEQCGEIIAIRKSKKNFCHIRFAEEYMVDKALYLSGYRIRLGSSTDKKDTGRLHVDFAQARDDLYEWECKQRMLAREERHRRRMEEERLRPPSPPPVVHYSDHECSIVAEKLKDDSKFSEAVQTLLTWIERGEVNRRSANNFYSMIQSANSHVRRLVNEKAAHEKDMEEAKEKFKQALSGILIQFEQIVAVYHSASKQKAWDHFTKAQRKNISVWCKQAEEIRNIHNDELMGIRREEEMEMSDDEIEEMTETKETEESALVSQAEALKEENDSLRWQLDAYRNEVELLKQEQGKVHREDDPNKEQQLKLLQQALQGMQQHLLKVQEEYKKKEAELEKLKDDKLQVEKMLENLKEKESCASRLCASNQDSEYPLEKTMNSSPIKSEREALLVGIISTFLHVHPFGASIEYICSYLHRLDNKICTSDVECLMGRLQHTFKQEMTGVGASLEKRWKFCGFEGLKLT

Oc1ccc(C2=Cc3ccc(O)cc3OC2)cc1 [Dehydroequol, 4′,7-dihydroxyisoflav-3-ene]
concentration producing detectable (comparable) topo II-mediated linear plasmid DNA (human topo II): 20 µg/mL
effect on topo II-mediated DNA strand breakage compared with positive controls (human topo II; genistein 30 μg/ml, VP-16 10 μg/ml): much greater than genistein; also recorded: comparable to VP-16
concentration at which production of linear plasmid DNA peaked (human topo II; pRYG DNA, proteinase K/SDS): 30 µg/mL
concentration at which production of linear plasmid DNA was evident (human topo II; pRYG DNA, proteinase K/SDS): 10 µg/mL
effect on TNF-stimulated sphingomyelinase activity (sphingomyelinase): does not affect
IC50 [1]: 3 µg/mL (≈ 12.5 µM)
IC50 (prostate cancer line PC3): 2 µg/mL (≈ 8.32 µM)
inhibition of capillary tube formation [2]: inhibits
topo I-mediated single-strand DNA breakage (nicked DNA) (human topo I): failed to produce nicked DNA
cell death in proliferation assays [3]: did not cause cell death
inhibition at 10 µg/mL ([3]; Homo sapiens, HUVEC, 10 μg/ml, five experiments): 91%
inhibition of tNOX activity (tNOX): inhibit tNOX activity
IC50 (leukaemic cell line K562): 3 µg/mL (≈ 12.5 µM)
IC50 ([4]; LNCaP, read-out: IC50 anti-proliferative): 1.5 µg/mL
pIC50 ([4]; LnCaP, n=3 separate experiments, read-out: In vitro cytotoxicity IC50): 5.36
IC50 (colon cancer line HT29): 15 µg/mL (≈ 62.4 µM)
IC50 (colon cancer line CaCo-2): 1 µg/mL (≈ 4.16 µM)
level of expression of VEGF receptor 2 (VEGF receptor 2): no changes

From US20060167083A1, “Therapeutic methods and compositions involving isoflav-3-ene and isoflavan structures” (priority 2002, published 2006)
